Experiments:
Assay type in all cases: in vivo
Nasturtium officinale = assay: Microscreen (pre-emergence), Example B3; conditions: preemergent application, 250 g/ha, evaluated 8 days later, 100%=total damage
Stellaria media = assay: Microscreen (pre-emergence), Example B3; conditions: preemergent application, 250 g/ha, evaluated 8 days later, 100%=total damage
Setaria italica = assay: Microscreen (pre-emergence), Example B3; conditions: preemergent application, 250 g/ha, evaluated 8 days later, 100%=total damage
Agrostis tenuis = assay: Microscreen (pre-emergence), Example B3; conditions: preemergent application, 250 g/ha, evaluated 8 days later, 100%=total damage
Digitaria sanguinalis = assay: Microscreen (pre-emergence), Example B3; conditions: preemergent application, 250 g/ha, evaluated 8 days later, 100%=total damage
Amaranthus retroflexus = assay: Microscreen (pre-emergence), Example B3; conditions: preemergent application, 250 g/ha, evaluated 8 days later, 100%=total damage
[1] = test system: Monocotyledonous and dicotyledonous test plants; assay: Herbicidal action prior to emergence of the plants (pre-emergence action), Example B1; conditions: preemergence application, 250 g/ha, evaluated after 4 weeks, 100%=total damage, 0%=no damage
Description: (§1) Monocotyledonous and dicotyledonous test plants are sown in seed trays in standard soil. Immediately after sowing, the test compounds are applied by spraying in the form of an aqueous suspension (prepared from a wettable powder (Example F3, b) according to WO 97/34485) or in the form of an emulsion (prepared from an emulsifiable concentrate (Example F1, c) according to WO 97/34485) in a concentration of 250 g/ha. The test plants are then grown in a greenhouse under optimum conditions. After a 4-week test period, the test is evaluated (100%=total damage to plant; 0%=no damage to plant; NC not evaluated).

Solanum nigrum = assay: Microscreen (pre-emergence), Example B3; conditions: preemergent application, 250 g/ha, evaluated 8 days later, 100%=total damage
[2] = test system: Monocotyledonous and dicotyledonous test plants; assay: Herbicidal action after emergence of the plants (post-emergence herbicidal action), Example B2; conditions: postemergent application, 125 g/ha, 2- to 3-leaf stage, evaluated after 2-3 weeks, 100%=total damage
Description: as §1, with “When the test plants are at the 2- to 3-leaf stage,” for “Immediately after sowing,”, “125” for “250”, “grown on” for “grown”, “2- to 3-week” for “4-week”, “plant).” for “plant; NC not evaluated).”

Row | Compound | herbicidal damage, Nasturtium (Nasturtium officinale) [%] | herbicidal damage, Stellaria (Stellaria media) [%] | herbicidal damage, Setaria (Setaria italica) [%] | herbicidal damage, Agrostis (Agrostis tenuis) [%] | herbicidal damage, Digitaria (Digitaria sanguinalis) [%] | herbicidal damage, Amaranthus (Amaranthus retroflexus) [%] | herbicidal damage, ABUTH [1] [%] | herbicidal damage, AMARE [1] [%] | herbicidal damage, BRAPL [1] [%] | herbicidal damage, DIGSA [1] [%] | herbicidal damage, ECHCG [1] [%] | herbicidal damage, SETFA [1] [%] | herbicidal damage, STEME [1] [%] | herbicidal damage, VERPE [1] [%] | herbicidal damage, Solanum (Solanum nigrum) [%] | herbicidal damage, ABUTH [2] [%] | herbicidal damage, AMARE [2] [%] | herbicidal damage, CHEAL [2] [%] | herbicidal damage, DIGSA [2] [%] | herbicidal damage, SETFA [2] [%] | further results
1 | Cc1nnc2c(C(=O)C3=C(O)C4(CCC3=O)CC4)ccc(C(F)(F)F)n12 [41.2] | 100 | 90 | 80 | 100 | 100 | 100 | 80 | 100 | 80 | 100 | 100 | 80 | 70 | 90 | 100 | – | – | – | – | – | –
2 | Cc1nnc2c(C(=O)C3=C(O)C(C)(C)C(=O)C(C)(C)C3=O)ccc(C(F)(F)F)n12 [Compound 5.3] | 100 | 90 | 50 | 50 | 100 | 100 | 100 | 100 | 70 | 100 | 100 | 60 | 100 | 100 | 100 | 80 | 70 | 80 | 50 | 50 | herbicidal damage, SINAR [2]: 80%; herbicidal damage, VERPE [2]: 90%; herbicidal damage, XANST [2]: 90%
3 | Cc1nnc2c(C(=O)C3=C(O)CCCC3=O)ccc(C(F)(F)F)n12 [Compound 3.4] | 80 | 70 | 60 | 100 | 100 | 80 | 80 | 60 | 80 | 70 | 70 | 30 | 30 | 50 | 0 | 90 | 80 | 60 | 80 | 80 | herbicidal damage, SINAR [2]: 90%; herbicidal damage, VERPE [2]: 100%; herbicidal damage, XANST [2]: 80%
4 | Cc1nnc2c(C(=O)C3C(=O)C4CCC(C4)C3=O)ccc(C(F)(F)F)n12 (stereo not shown) [Compound 1.4, 3-(3-Methyl-5-trifluoromethyl-[1,2,4]triazolo[4,3-a]pyridine-8-carbonyl)-bicyclo[3.2.1]octane-2,4-dione] | 90 | 80 | 70 | 50 | 90 | 90 | 100 | 100 | 70 | 100 | 90 | 90 | 100 | 100 | 90 | 70 | 70 | 90 | 80 | 90 | herbicidal damage, SINAR [2]: 80%; herbicidal damage, VERPE [2]: 80%; herbicidal damage, XANST [2]: 70%
5 | O=C(C1=C(O)C2CCC(C2)C1=O)c1ccc(C(F)(F)F)n2c(C3CC3)nnc12 (stereo not shown) [Compound 1.8] | 100 | 80 | 100 | 100 | 100 | 0 | 100 | 100 | 100 | 100 | 40 | 60 | – | 70 | 90 | 90 | 90 | 90 | 80 | 80 | herbicidal damage, SINAR [2]: 90%; herbicidal damage, VERPE [2]: 100%; herbicidal damage, XANST [2]: 90%
6 | Cc1nnc2c(C(=O)C3=C(O)CC(C)CC3=O)ccc(C(F)(F)F)n12 (stereo not shown) [Compound 4.3] | 100 | 80 | 60 | 100 | 100 | 100 | 70 | 100 | 100 | 100 | 100 | 40 | 80 | 100 | 100 | – | – | – | – | – | –
7 | CCc1nnc2c(C(=O)C3=C(O)C4CCC(C4)C3=O)ccc(C(F)(F)F)n12 (stereo not shown) [Compound 1.5] | 80 | 60 | 50 | 100 | 80 | 30 | 100 | 100 | 60 | 100 | 60 | 80 | 100 | 70 | 100 | 90 | 70 | 80 | 70 | 60 | herbicidal damage, SINAR [2]: 80%; herbicidal damage, VERPE [2]: 70%; herbicidal damage, XANST [2]: 80%
8 | COCc1nnc2c(C(=O)C3=C(O)C(C)(C)C(=O)C(C)(C)C3=O)ccc(C(F)(F)F)n12 [Compound 5.5] | – | – | – | – | – | – | – | 60 | 20 | 10 | 60 | 20 | 70 | 90 | – | 80 | 90 | 80 | 10 | 50 | herbicidal damage, SINAR [2]: 70%; herbicidal damage, VERPE [2]: 80%; herbicidal damage, XANST [2]: 70%
9 | O=C1CCCC(O)=C1C(=O)c1ccc(C(F)(F)F)n2c(Br)nnc12 [Compound 3.3] | – | – | – | – | – | – | 100 | 100 | 0 | 0 | 0 | 0 | 70 | 30 | – | 70 | 70 | 80 | 70 | 30 | herbicidal damage, SINAR [2]: 70%; herbicidal damage, VERPE [2]: 80%; herbicidal damage, XANST [2]: 80%
